The values that follow come from paper PMC7216583 (Parasites & Vectors, 2020).

Where a name gives a salt, the structure may show the parent alone.

The first experiment concerns Toxoplasma gondii RH-2F tachyzoites. Put plainly: microbe, parasite or virus in culture. The conditions noted are these: 72 h, read-out: Parasite inhibition (%) mean.
With `Nc1ncnc2nc[nH]c12` [Adenine sulfate], the inhibition of growth at 5 µM was 11.8%.

The experiment is the same for the next values; noted with them: 72 h, read-out: Parasite inhibition (%) mean, preliminary screen of compound library, mean.
Consider `O=S(=O)(O)Oc1ccc(C(c2ccc(OS(=O)(=O)O)cc2)c2ccccn2)cc1` [Sodium Picosulfate], for which the inhibition of growth at 5 µM is 0.3%.

As for `CCCC(=O)[O-].[Na+]` [Sodium butyrate], the inhibition of growth at 5 µM came to 23.1%. Same read-out and setting: as for `CC(C)OC(=O)C(C(=O)OC(C)C)=C1SC=CS1` [Malotilate], the figure is 0.5%. For `Cc1cccc(-c2nn3c(c2-c2ccnc4ccc(C(N)=O)cc24)CCC3)n1` [LY2157299], the inhibition of growth at 5 µM amounted to 5.2%. In the case of `CC(C)[C@H](N)C(=O)OCCOCn1cnc2c(=O)[nH]c(N)nc21` [Valaciclovir HCl], the inhibition of growth at 5 µM turned out to be 0.1%. With `O=C(O)c1ccc2c(c1)nc(Nc1cccc(Cl)c1)c1ccncc12` [CX-4945 (Silmitasertib)], the inhibition of growth at 5 µM came to 1.5%. On the same count and under the same terms, the figure for `CC(S)C(=O)NCC(=O)O` (stereo not drawn) [Tiopronin (Thiola)] is 0.9%; for `C[C@H]1CCO[C@H]2Cn3cc(C(=O)NCc4ccc(F)cc4F)c(=O)c(O)c3C(=O)N21` [S/GSK1349572 (GSK1349572)] it is 0.2%; for `Oc1ccc([C@H]2COc3cc(O)ccc3C2)cc1` [Equol] it is -5.6%. For `COc1ccc(CCC(=O)Nc2nc3ccc(Cl)cc3s2)cc1OC` [KY02111], the inhibition of growth at 5 µM is -12.8%. Take `CC1CCN(CC[C@H]2CCCN2S(=O)(=O)c2cccc(O)c2)CC1` [SB-269970 HCl]: the inhibition of growth at 5 µM is -10.7%. The same measure, in the same setting: the figure for `COC(=O)C1=C(C)NC(C)=C(C(=O)OCCN2CCN(C(c3ccccc3)c3ccccc3)CC2)C1c1cccc([N+](=O)[O-])c1` (stereo not drawn) [Manidipine (Manyper)] is 1.1%; for `CN1C2=CC(=O)/C(=N\NC(N)=O)C=C2CC1S(=O)(=O)O` (stereo not drawn) [Carbazochrome sodium sulfonate] it is 1.2%; for `Nc1nc2c(ncn2COCCO)c(=O)[nH]1` [Acyclovir (Aciclovir)] it is -55.5%. For `CC(C(=O)O)c1ccc2c(c1)CC(=O)c1ccccc1S2` (stereo not drawn) [Zaltoprofen], the inhibition of growth at 5 µM amounted to 3.3%. In the case of `CCOC(=O)c1ccc(C#Cc2ccc3c(c2)C(C)(C)CCS3)nc1` [Tazarotene (Avage)], the inhibition of growth at 5 µM is -0.7%.

For the molecule `C[C@]12C=CC(=O)C=C1CC[C@@H]1[C@H]2C(=O)C[C@@]2(C)[C@H]1CC[C@@]2(O)C(=O)CO` [Prednisone (Adasone)], the inhibition of growth at 5 µM amounted to 33.8%.

With `CCCCOc1cc(C(=O)NCCN(CC)CC)c2ccccc2n1` [Dibucaine (Cinchocaine) HCl], the inhibition of growth at 5 µM came out at 8.9%. For the molecule `CCn1c(=O)c2c(nc(/C=C/c3ccc(OC)c(OC)c3)n2C)n(CC)c1=O` [Istradefylline (KW-6002)], the inhibition of growth at 5 µM was -1.9%. As to `CN1CCN2c3ncccc3Cc3ccccc3C2C1` (stereo not drawn) [Mirtazapine (Remeron, Avanza)], the inhibition of growth at 5 µM worked out at 33.1%. In the case of `Nc1ncnc2c1c(-c1cnc3[nH]ccc3c1)nn2C1CCCC1` [PP-121], the inhibition of growth at 5 µM stood at 36.8%. `O=C[C@H](O)[C@@H](O)[C@H](O)[C@H](O)CO` [Dextrose (D-glucose)]: the inhibition of growth at 5 µM is -33.7%.

For `CC1(C)S[C@@H]2[C@H](NC(=O)[C@H](N)c3ccc(O)cc3)C(=O)N2[C@@H]1C(=O)O` [Amoxicillin sodium (Amox)], the inhibition of growth at 5 µM amounted to 9.1%. Consider `Cc1cnc(NC(=O)Nc2cc(Br)c(C)cc2OC[C@@H]2CNCCO2)cn1` [LY2603618 (IC-83)], for which the inhibition of growth at 5 µM worked out at 22.7%.

For `CCCCCCCCOc1ccccc1C(=O)Nc1ccc(C(=O)OCC[N+](C)(CC)CC)cc1` [Otilonium Bromide], the inhibition of growth at 5 µM stood at 0.7%. For `CC(=O)OCC(=O)[C@]1(O)CC[C@H]2[C@@H]3CCC4=CC(=O)CC[C@]4(C)[C@@H]3C(=O)C[C@@]21C` [Cortisone acetate (Cortone)], the inhibition of growth at 5 µM was 44.8%.

As to `N#CCNC(=O)c1ccc(-c2ccnc(Nc3ccc(N4CCOCC4)cc3)n2)cc1` [Cyt387], the inhibition of growth at 5 µM was 28.9%. As to `O=C[C@H](O)[C@@H](O)[C@H](O)CO` [Xylose], the inhibition of growth at 5 µM was -51.2%. In the case of `CN(C)[C@@H]1C(O)=C(C(N)=O)C(=O)[C@@]2(O)C(=O)C3=C(O)c4c(O)cccc4[C@@](C)(O)[C@H]3[C@H](O)[C@@H]12` [Oxytetracycline (Terramycin)], the inhibition of growth at 5 µM turned out to be 33.5%. For the molecule `CCOC(=O)c1c(CSc2ccccc2)n(C)c2cc(Br)c(O)c(CN(C)C)c12` [Arbidol HCl], the inhibition of growth at 5 µM is 2.8%.

Still in this experiment, the particulars now being: 72 h, read-out: Parasite inhibition (%) mean, preliminary screen, mean.
For the molecule `c1ccc2c(CCNc3ccc(Nc4ccncc4)cc3)c[nH]c2c1` [JNJ 26854165 (Serdemetan)], the inhibition of growth at 5 µM is 48.9%. As to `Cc1nc(C(=O)NCC(=O)O)c(O)c2ccc(Oc3ccccc3)cc12` [FG-4592], the inhibition of growth at 5 µM was determined as 1.3%. `CN(C)CCc1c[nH]c2ccc(CS(=O)(=O)N3CCCC3)cc12` [Almotriptan malate (Axert)]: the inhibition of growth at 5 µM stood at 2%.

`Cc1cccc(Nc2nc(-c3ccncc3)cs2)c1` [STF-62247]: the inhibition of growth at 5 µM amounted to 15.2%. On the same count and under the same terms, as for `CS(=O)(=O)CCNCc1ccc(-c2ccc3ncnc(Nc4ccc(OCc5cccc(F)c5)c(Cl)c4)c3c2)o1` [Lapatinib Ditosylate (Tykerb)], the figure is 3.3%. As for `COc1ccc2[nH]c([S+]([O-])Cc3ncc(C)c(OC)c3C)nc2c1` (stereo not drawn) [Esomeprazole magnesium (Nexium)], the inhibition of growth at 5 µM came out at 1.6%. On to `C[C@@H](Oc1cc(-n2cnc3ccc(CN4CCN(C)CC4)cc32)sc1C(N)=O)c1ccccc1C(F)(F)F` [GSK461364], for which the inhibition of growth at 5 µM was 6.6%. For `CCC(=O)O[C@@H](OP(=O)(CCCCc1ccccc1)CC(=O)N1C[C@H](C2CCCCC2)C[C@H]1C(=O)O)C(C)C` (stereo partly drawn) [Fosinopril sodium (Monopril)], the inhibition of growth at 5 µM worked out at 21.3%. Still for that read-out and setting: as for `Cc1ccc(C(=O)Nc2ccc(CN3CCN(C)CC3)c(C(F)(F)F)c2)cc1C#Cc1cnc2cccnn12` [Ponatinib (AP24534)], the figure is 49.3%. In the case of `C#C[C@]1(O)C=C[C@H]2[C@@H]3CCC4=CC(=O)CC[C@@H]4[C@H]3CC[C@@]21CC` [Gestodene], the inhibition of growth at 5 µM turned out to be 0.6%.

Take `CCC(COC(=O)c1cc(OC)c(OC)c(OC)c1)(c1ccccc1)N(C)C` (stereo not drawn) [Trimebutine]: the inhibition of growth at 5 µM stood at 1.4%. As for `CCCC(=O)OCOC(=O)C1=C(C)NC(C)=C(C(=O)OC)C1c1cccc(Cl)c1Cl` (stereo not drawn) [Cleviprex (Clevidipine)], the inhibition of growth at 5 µM was found to be 23.8%. On to `COc1ccc(C[C@@H]2c3cc(OC)c(OC)cc3CC[N@+]2(C)CCC(=O)OCCCCCOC(=O)CC[N@@+]2(C)CCc3cc(OC)c(OC)cc3[C@H]2Cc2ccc(OC)c(OC)c2)cc1OC` [Cisatracurium besylate (Nimbex)], for which the inhibition of growth at 5 µM is 4.5%. In the case of `C[C@@H](N)[C@H]1CC[C@H](C(=O)Nc2ccncc2)CC1` [Y-27632 2HCl], the inhibition of growth at 5 µM is -4.8%. For `O=C(NOCC1CC1)c1ccc(F)c(F)c1Nc1ccc(I)cc1Cl` [CI-1040 (PD184352)], the inhibition of growth at 5 µM was 0.4%. For the molecule `O=c1[nH]cnc2[nH]ncc12` [Allopurinol Sodium (Aloprim)], the inhibition of growth at 5 µM was -0.7%. Consider `CCCN1CCO[C@@H]2c3cc(O)ccc3OC[C@@H]21` [PD 128907 HCl], for which the inhibition of growth at 5 µM is 1.8%.
